The text below walks through data of patent publication US10544147B2, “Purine inhibitors of human phosphatidylinositol 3-kinase delta” (MERCK SHARP & DOHME CORP., priority 2016, dated 2020).

The target of assay [1] is PI3Kdelta (Homo sapiens (Human), UniProt O00329). The assay is described as follows: HTRF PI3K biochemical assay, delta isoform. Particulars: 0.3 nM enzyme, 100 uM ATP, 50 uM PIP2; form screened (neutral or TFA salt).
For assay [2], the target named is PI3Kalpha (Homo sapiens (Human), UniProt P42336). The assay is described as follows: HTRF PI3K biochemical assay, alpha isoform (selectivity versus delta). Particulars: ratio PI3K-alpha IC50 value/PI3K-delta IC50 value. (TR-FRET usually uses a lanthanide donor and a delayed reading to cut background.)
PI3Kalpha, sequence (P42336 whole entry, canonical isoform): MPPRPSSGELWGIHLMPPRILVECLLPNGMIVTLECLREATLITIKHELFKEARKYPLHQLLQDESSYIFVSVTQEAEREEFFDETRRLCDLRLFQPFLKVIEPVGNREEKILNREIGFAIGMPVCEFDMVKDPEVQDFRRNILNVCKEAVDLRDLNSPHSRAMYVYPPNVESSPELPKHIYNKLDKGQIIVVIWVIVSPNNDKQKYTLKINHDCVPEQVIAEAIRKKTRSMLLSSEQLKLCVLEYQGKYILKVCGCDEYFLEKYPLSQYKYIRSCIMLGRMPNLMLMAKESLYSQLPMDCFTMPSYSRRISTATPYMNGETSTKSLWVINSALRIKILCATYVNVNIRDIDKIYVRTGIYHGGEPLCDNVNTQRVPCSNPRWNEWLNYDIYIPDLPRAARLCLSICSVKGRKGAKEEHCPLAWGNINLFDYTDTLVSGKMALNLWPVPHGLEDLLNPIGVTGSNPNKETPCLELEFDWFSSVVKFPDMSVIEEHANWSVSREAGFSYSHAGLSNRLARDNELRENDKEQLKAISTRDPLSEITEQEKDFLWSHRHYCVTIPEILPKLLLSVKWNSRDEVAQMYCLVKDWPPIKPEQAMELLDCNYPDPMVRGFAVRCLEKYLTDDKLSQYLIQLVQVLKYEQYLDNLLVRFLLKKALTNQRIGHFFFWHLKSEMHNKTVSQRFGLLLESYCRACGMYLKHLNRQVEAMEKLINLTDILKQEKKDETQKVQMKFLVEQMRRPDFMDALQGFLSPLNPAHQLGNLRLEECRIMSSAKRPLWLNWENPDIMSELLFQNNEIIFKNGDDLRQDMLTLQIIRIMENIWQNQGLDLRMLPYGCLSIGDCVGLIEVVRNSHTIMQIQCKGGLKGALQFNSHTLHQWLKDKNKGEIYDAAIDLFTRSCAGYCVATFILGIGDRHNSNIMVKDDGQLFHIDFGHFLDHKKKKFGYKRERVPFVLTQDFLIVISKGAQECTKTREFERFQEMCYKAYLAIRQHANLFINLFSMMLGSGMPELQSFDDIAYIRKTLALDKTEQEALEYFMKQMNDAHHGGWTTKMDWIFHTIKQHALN
PI3Kalpha, sequence (P27986 whole entry partner, canonical isoform): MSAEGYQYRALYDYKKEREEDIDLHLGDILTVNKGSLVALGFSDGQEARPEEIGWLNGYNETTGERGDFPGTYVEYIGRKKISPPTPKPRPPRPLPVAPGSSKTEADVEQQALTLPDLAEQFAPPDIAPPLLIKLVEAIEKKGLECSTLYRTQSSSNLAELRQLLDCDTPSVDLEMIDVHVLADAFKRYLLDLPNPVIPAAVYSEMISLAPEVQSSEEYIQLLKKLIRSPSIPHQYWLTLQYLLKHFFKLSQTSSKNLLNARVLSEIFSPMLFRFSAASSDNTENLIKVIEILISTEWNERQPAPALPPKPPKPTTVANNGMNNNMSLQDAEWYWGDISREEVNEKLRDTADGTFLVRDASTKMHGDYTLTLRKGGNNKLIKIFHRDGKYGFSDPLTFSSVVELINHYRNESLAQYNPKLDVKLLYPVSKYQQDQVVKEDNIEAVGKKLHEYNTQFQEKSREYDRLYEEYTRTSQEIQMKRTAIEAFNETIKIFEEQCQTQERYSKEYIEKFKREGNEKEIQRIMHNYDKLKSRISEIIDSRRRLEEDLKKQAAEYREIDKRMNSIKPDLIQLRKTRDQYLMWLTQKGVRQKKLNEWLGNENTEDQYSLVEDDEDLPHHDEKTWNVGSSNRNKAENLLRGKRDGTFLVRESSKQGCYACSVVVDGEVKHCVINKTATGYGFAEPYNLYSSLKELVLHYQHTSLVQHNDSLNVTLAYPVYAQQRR

Bounds are passed on as bounds.

PI3Kdelta, sequence (O00329 whole entry, canonical isoform): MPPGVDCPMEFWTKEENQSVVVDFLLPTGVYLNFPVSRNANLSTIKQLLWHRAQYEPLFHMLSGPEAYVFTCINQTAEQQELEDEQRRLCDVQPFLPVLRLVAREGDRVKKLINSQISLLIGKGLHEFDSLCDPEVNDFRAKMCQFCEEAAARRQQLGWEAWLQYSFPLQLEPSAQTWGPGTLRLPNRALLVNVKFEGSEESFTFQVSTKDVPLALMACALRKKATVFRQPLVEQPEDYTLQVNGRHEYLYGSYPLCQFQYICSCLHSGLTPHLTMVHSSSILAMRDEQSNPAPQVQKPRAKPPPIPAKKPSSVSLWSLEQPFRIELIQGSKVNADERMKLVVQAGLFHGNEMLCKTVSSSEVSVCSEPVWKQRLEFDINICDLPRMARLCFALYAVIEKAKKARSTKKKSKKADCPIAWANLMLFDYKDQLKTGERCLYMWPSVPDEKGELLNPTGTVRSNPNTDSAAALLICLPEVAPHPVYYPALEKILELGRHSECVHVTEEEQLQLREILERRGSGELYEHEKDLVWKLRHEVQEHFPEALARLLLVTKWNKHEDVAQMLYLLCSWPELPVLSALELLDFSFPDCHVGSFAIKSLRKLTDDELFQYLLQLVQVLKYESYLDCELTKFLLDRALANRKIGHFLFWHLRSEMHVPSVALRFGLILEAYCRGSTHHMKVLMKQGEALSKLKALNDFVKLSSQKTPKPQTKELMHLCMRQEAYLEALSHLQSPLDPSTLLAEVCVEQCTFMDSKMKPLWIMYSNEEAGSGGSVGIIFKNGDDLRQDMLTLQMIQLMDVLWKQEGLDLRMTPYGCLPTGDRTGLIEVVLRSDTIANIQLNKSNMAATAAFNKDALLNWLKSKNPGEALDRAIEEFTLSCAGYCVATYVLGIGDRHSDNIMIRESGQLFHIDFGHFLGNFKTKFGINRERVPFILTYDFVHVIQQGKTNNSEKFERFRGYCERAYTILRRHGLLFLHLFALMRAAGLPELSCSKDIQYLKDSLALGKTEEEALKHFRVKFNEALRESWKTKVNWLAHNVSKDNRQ
PI3Kdelta, sequence (P27986 whole entry partner, canonical isoform): as the sequence (P27986 whole entry partner, canonical isoform) above

For `Cc1ncc(-c2nc3c(-c4ccc5c(c4)C4(CCCN4C(=O)C4CC4)C(=O)N5CCN4CCOCC4)ncnc3n2C)cn1` (single isomer, unassigned) [Compound 3-16, (R or S)-1′-(cyclopropanecarbonyl)-5-(9-methyl-8-(2-methylpyrimidin-5-yl)-9H-purin-6-yl)-1-(2-morpholinoethyl)spiro[indoline-3,2′-pyrrolidin]-2-one], the IC50 (commonly the concentration that gives 50% inhibition) in assay [1] was found to be 2 nM. For the same molecule, in assay [2], the “Relative Selectivity versus PI3Kalpha” value was above 10.

On to `Cc1ncc(-c2nc3c(-c4ccc5c(c4)C4(CCCN4C(=O)C4CC4)C(=O)N5CC(C)(C)O)ncnc3n2C)cn1` (single isomer, unassigned) [Compound 3-17, (R or S)-1′-(cyclopropanecarbonyl)-1-(2-hydroxy-2-methylpropyl)-5-(9-methyl-8-(2-methylpyrimidin-5-yl)-9H-purin-6-yl)spiro[indoline-3,2′-pyrrolidin]-2-one], for which, in assay [1], the IC50 amounted to 2.5 nM. In addition, in assay [2], the “Relative Selectivity versus PI3Kalpha” value was above 10.

With `Cc1ncc(-c2nc3c(-c4ccc5c(c4)C4(CCCN4C(=O)C4CC4)C(=O)N5CCO)ncnc3n2C)cn1` (single isomer, unassigned) [Compound 3-18, (R or S)-1′-(cyclopropanecarbonyl)-1-(2-hydroxyethyl)-5-(9-methyl-8-(2-methylpyrimidin-5-yl)-9H-purin-6-yl)spiro[indoline-3,2′-pyrrolidin]-2-one], in assay [1], the IC50 was found to be 1.9 nM. The “Relative Selectivity versus PI3Kalpha” value in assay [2] is above 10.

As to `CCn1c(-c2cnc(C)nc2)nc2c(-c3ccc4c(c3)C3(CCCN3S(C)(=O)=O)C(=O)N4)ncnc21` (single isomer, unassigned) [Compound 3-19, (R or S)-5-(9-ethyl-8-(2-methylpyrimidin-5-yl)-9H-purin-6-yl)-1′-(methylsulfonyl)spiro[indoline-3,2′-pyrrolidin]-2-one], the IC50 in assay [1] came to 0.7 nM. In addition, the “Relative Selectivity versus PI3Kalpha” value in assay [2] is above 10.

For `CCn1c(-c2cnc(C)nc2)nc2c(-c3ccc4c(c3)C3(CCCN3S(C)(=O)=O)C(=O)N4)ncnc21` (single isomer, unassigned) [Compound 3-20, (R or S)-5-(9-ethyl-8-(2-methylpyrimidin-5-yl)-9H-purin-6-yl)-1′-(methylsulfonyl)spiro[indoline-3,2′-pyrrolidin]-2-one], in assay [1], the IC50 was found to be 55 nM. Moreover, the “Relative Selectivity versus PI3Kalpha” value in assay [2] is above 10.

`CCn1c(-c2cnc(C)nc2)nc2c(-c3ccc4c(c3)C3(CCCN3S(=O)(=O)C(F)(F)F)C(=O)N4)ncnc21` (single isomer, unassigned) [Compound 3-21, (R or S)-5-(9-ethyl-8-(2-methylpyrimidin-5-yl)-9H-purin-6-yl)-1′-((trifluoromethyl)sulfonyl)spiro[indoline-3,2′-pyrrolidin]-2-one]: in assay [1], the IC50 was found to be 69 nM. Further, the “Relative Selectivity versus PI3Kalpha” value in assay [2] was found to be 2.

For `CCn1c(-c2cnc(C)nc2)nc2c(-c3ccc4c(c3)C3(CCCN3S(=O)(=O)C(F)(F)F)C(=O)N4)ncnc21` (single isomer, unassigned) [Compound 3-22, (R or S)-5-(9-ethyl-8-(2-methylpyrimidin-5-yl)-9H-purin-6-yl)-1′-((trifluoromethyl)sulfonyl)spiro[indoline-3,2′-pyrrolidine]-2-one], the concentration for half-maximal inhibition (IC50) in assay [1] is 4 nM. The “Relative Selectivity versus PI3Kalpha” value in assay [2] was above 10.

Turning to `CCn1c(-c2cnc(C)nc2)nc2c(-c3ccc4c(c3)C3(CCCN3S(C)(=O)=O)C(=O)N4C)ncnc21` (single isomer, unassigned) [Compound 3-23, (R or S)-5-(9-ethyl-8-(2-methylpyrimidin-5-yl)-9H-purin-6-yl)-1-methyl-1′-(methylsulfonyl)spiro[indoline-3,2′-pyrrolidin]-2-one], the IC50 in assay [1] came out at 6 nM. In addition, the “Relative Selectivity versus PI3Kalpha” value in assay [2] was above 10.

Take `CCn1c(-c2cnc(C)nc2)nc2c(-c3ccc4c(c3)C3(CCCN3S(C)(=O)=O)C(=O)N4C)ncnc21` (single isomer, unassigned) [Compound 3-24, (R or S)-5-(9-ethyl-8-(2-methylpyrimidin-5-yl)-9H-purin-6-yl)-1-methyl-1′-(methylsulfonyl)spiro[indoline-3,2′-pyrrolidin]-2-one]: in assay [1], the IC50 was determined as 32 nM. The “Relative Selectivity versus PI3Kalpha” value in assay [2] is above 10.

On to `CCN1CCCC12C(=O)Nc1ccc(-c3ncnc4c3nc(-c3cnc(C)nc3)n4CC)cc12` (single isomer, unassigned) [Compound 3-26, (R or S)-1′-ethyl-5-(9-ethyl-8-(2-methylpyrimidin-5-yl)-9H-purin-6-yl)spiro[indoline-3,2′-pyrrolidin]-2-one], for which, in assay [1], the IC50 was 29 nM. The “Relative Selectivity versus PI3Kalpha” value in assay [2] was above 10.

Regarding `CCN1CCCC12C(=O)Nc1ccc(-c3ncnc4c3nc(-c3cnc(C)nc3)n4CC)cc12` (single isomer, unassigned) [Compound 3-27, (R or S)-1′-ethyl-5-(9-ethyl-8-(2-methylpyrimidin-5-yl)-9H-purin-6-yl)spiro[indoline-3,2′-pyrrolidin]-2-one], in assay [1], the IC50 stood at 9 nM. Moreover, in assay [2], the “Relative Selectivity versus PI3Kalpha” value is above 10.

Take `CCN1CCCC12C(=O)Nc1ccc(-c3ncnc4c3nc(-c3cnc(C)nc3)n4C)cc12` (single isomer, unassigned) [Compound 3-28, (R or S)-1′-ethyl-5-(9-methyl-8-(2-methylpyrimidin-5-yl)-9H-purin-6-yl)spiro[indoline-3,2′-pyrrolidin]-2-one]: the 50% inhibitory concentration (IC50) in assay [1] was 99 nM. Besides, the “Relative Selectivity versus PI3Kalpha” value in assay [2] was above 10.

For the molecule `CCN1CCCC12C(=O)Nc1ccc(-c3ncnc4c3nc(-c3cnc(C)nc3)n4C)cc12` (single isomer, unassigned) [Compound 3-29, (R or S)-1′-ethyl-5-(9-methyl-8-(2-methylpyrimidin-5-yl)-9H-purin-6-yl)spiro[indoline-3,2′-pyrrolidin]-2-one], the IC50 in assay [1] stood at 15 nM. Further, the “Relative Selectivity versus PI3Kalpha” value in assay [2] is listed as above 10.

Consider `CCn1c(-c2cnc(C)nc2)nc2c(-c3ccc4c(c3)C3(CCCO3)C(=O)N4)ncnc21` (single isomer, unassigned) [Compound 3-30, (R or S)-5′-(9-ethyl-8-(2-methylpyrimidin-5-yl)-9H-purin-6-yl)-4,5-dihydro-3H-spiro[furan-2,3′-indolin]-2′-one], for which, in assay [1], the IC50 came to 156 nM. Besides, the “Relative Selectivity versus PI3Kalpha” value in assay [2] came to 5.

Regarding `CCn1c(-c2cnc(C)nc2)nc2c(-c3ccc4c(c3)C3(CCCO3)C(=O)N4)ncnc21` (single isomer, unassigned) [Compound 3-31, (R or S)-5′-(9-ethyl-8-(2-methylpyrimidin-5-yl)-9H-purin-6-yl)-4,5-dihydro-3H-spiro[furan-2,3′-indolin]-2′-one], in assay [1], the IC50 was 99 nM. Further, the “Relative Selectivity versus PI3Kalpha” value in assay [2] is given as above 10.

As for `CCn1c(-c2cnc(C)nc2)nc2c(-c3ccc4c(c3)C3(CCCN3)C(=O)N4)ncnc21` (single isomer, unassigned) [Compound 3-32, (R or S)-5-(9-ethyl-8-(2-methylpyrimidin-5-yl)-9H-purin-6-yl)spiro[indoline-3,2′-pyrrolidin]-2-one], the IC50 in assay [1] came out at 169 nM. Besides, in assay [2], the “Relative Selectivity versus PI3Kalpha” value was above 10.

Regarding `CCn1c(-c2cnc(C)nc2)nc2c(-c3ccc4c(c3)C3(CCCN3)C(=O)N4)ncnc21` (single isomer, unassigned) [Compound 3-33, (R or S)-5-(9-ethyl-8-(2-methylpyrimidin-5-yl)-9H-purin-6-yl)spiro[indoline-3,2′-pyrrolidin]-2-one], the IC50 in assay [1] is 67 nM. For the same molecule, the “Relative Selectivity versus PI3Kalpha” value in assay [2] is recorded as above 10.

Take `CCn1c(-c2cnc(C)nc2)nc2c(-c3ccc4c(c3)C3(CCN(C(C)C)C3)C(=O)N4)ncnc21` (single isomer, unassigned) [Compound 3-35, (R or S)-5-(9-ethyl-8-(2-methylpyrimidin-5-yl)-9H-purin-6-yl)-1′-isopropylspiro[indoline-3,3′-pyrrolidin]-2-one]: the IC50 in assay [1] came out at 14 nM. Further, the “Relative Selectivity versus PI3Kalpha” value in assay [2] is listed as above 10.

In the case of `CCn1c(-c2cnc(C)nc2)nc2c(-c3ccc4c(c3)C3(CCN(C(C)C)C3)C(=O)N4)ncnc21` (single isomer, unassigned) [Compound 3-36, (R or S)-5-(9-ethyl-8-(2-methylpyrimidin-5-yl)-9H-purin-6-yl)-1′-isopropylspiro[indoline-3,3′-pyrrolidin]-2-one], in assay [1], the half-maximal inhibitory concentration (IC50) was found to be 26 nM. The “Relative Selectivity versus PI3Kalpha” value in assay [2] is on record as above 10.

As to `CCn1c(-c2cnc(C)nc2)nc2c(-c3ccc4c(c3)C(Cc3ccccc3)OC(=O)N4)ncnc21` (single isomer, unassigned) [Compound 4-1, (R or S)-4-benzyl-6-[9-ethyl-8-(2-methylpyrimidin-5-yl)-9H-purin-6-yl]-1,4-dihydro-2H-3,1-benzoxazin-2-one], the IC50 in assay [1] was found to be 97 nM. Besides, the “Relative Selectivity versus PI3Kalpha” value in assay [2] is recorded as 2.

In the case of `CCn1c(-c2cnc(C)nc2)nc2c(-c3ccc4c(c3)C(Cc3ccccc3)OC(=O)N4)ncnc21` (single isomer, unassigned) [Compound 4-2, (R or S)-4-benzyl-6-[9-ethyl-8-(2-methylpyrimidin-5-yl)-9H-purin-6-yl]-1,4-dihydro-2H-3,1-benzoxazin-2-one], in assay [1], the IC50 turned out to be 35 nM. Also, the “Relative Selectivity versus PI3Kalpha” value in assay [2] was above 10.

On to `CCn1c(-c2cnc(C)nc2)nc2c(-c3ccc4c(c3)C(C)(CC(C)C)OC(=O)N4)ncnc21` (single isomer, unassigned) [Compound 4-3, (R or S)-6-[9-ethyl-8-(2-methylpyrimidin-5-yl)-9H-purin-6-yl]-4-methyl-4-(2-methylpropyl)-1,4-dihydro-2H-3,1-benzoxazin-2-one], for which, in assay [1], the IC50 stood at 59 nM. The “Relative Selectivity versus PI3Kalpha” value in assay [2] is recorded as 6.

Regarding `CCn1c(-c2cnc(C)nc2)nc2c(-c3ccc4c(c3)C(C)(CC(C)C)OC(=O)N4)ncnc21` (single isomer, unassigned) [Compound 4-4, (R or S)-6-[9-ethyl-8-(2-methylpyrimidin-5-yl)-9H-purin-6-yl]-4-methyl-4-(2-methylpropyl)-1,4-dihydro-2H-3,1-benzoxazin-2-one], in assay [1], the 50% inhibitory concentration (IC50) is 4 nM. For the same molecule, in assay [2], the “Relative Selectivity versus PI3Kalpha” value was above 10.
